The text below walks through data of article PMC8537140, “Synthesis and Inhibition Activity Study of Triazinyl-Substituted Amino(alkyl)-benzenesulfonamide Conjugates with Polar and Hydrophobic Amino Acids as Inhibitors of Human Carbonic Anhydrases I, II, IV, IX, and XII” (International Journal of Molecular Sciences, 2021).

What all share (type): biochemical
The target in one assay is T1, hCA IX (Homo sapiens, UniProt Q16790).
T1 construct: made in house
Nature of the assay: stopped-flow CO2 hydrase assay, hCA IX. As to conditions: for Selectivity II/IX: ratio Ki hCA II / Ki hCA IX; for Ki: recombinant enzyme, 15 min preincubation, pH 8.3, mean from 3 assays.

Another assay addresses T2, hCA I (Homo sapiens, UniProt P00915).
T2 construct: made in house
Nature of the assay: stopped-flow CO2 hydrase assay, hCA I. The settings on record: recombinant enzyme, 15 min preincubation, pH 8.3, mean from 3 assays.

In the next assay the target is T3, hCA IV (Homo sapiens, UniProt P22748).
T3 construct: made in house
Nature of the assay: stopped-flow CO2 hydrase assay, hCA IV. The settings on record: recombinant enzyme, 15 min preincubation, pH 8.3, mean from 3 assays.

In another assay the target is T4, hCA II (Homo sapiens, UniProt P00918).
T4 construct: made in house
The experiment in a line: stopped-flow CO2 hydrase assay, hCA II. The settings on record: recombinant enzyme, 15 min preincubation, pH 8.3, mean from 3 assays.

The next assay deals with T5, hCA XII (Homo sapiens, UniProt O43570).
T5 construct: made in house
Nature of the assay: stopped-flow CO2 hydrase assay, hCA XII. The settings on record: for Selectivity II/XII: ratio Ki hCA II / Ki hCA XII; for Ki: recombinant enzyme, 15 min preincubation, pH 8.3, mean from 3 assays.

T3 sequence (P22748 19-312): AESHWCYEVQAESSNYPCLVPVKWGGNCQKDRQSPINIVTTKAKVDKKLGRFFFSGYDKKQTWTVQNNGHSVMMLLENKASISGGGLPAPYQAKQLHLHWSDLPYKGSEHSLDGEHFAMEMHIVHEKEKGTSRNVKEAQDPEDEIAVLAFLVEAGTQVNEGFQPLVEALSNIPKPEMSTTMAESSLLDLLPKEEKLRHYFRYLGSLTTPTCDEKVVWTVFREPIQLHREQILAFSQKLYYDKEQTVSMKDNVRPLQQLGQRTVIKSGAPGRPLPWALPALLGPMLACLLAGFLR
T2 sequence (P00915 whole entry): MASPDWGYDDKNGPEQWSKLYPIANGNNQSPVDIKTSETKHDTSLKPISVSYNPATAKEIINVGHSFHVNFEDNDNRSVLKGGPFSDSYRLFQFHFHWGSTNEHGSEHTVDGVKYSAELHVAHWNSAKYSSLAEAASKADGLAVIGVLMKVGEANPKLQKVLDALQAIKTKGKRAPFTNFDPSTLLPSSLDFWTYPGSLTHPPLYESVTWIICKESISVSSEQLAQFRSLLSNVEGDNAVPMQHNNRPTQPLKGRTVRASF
T5 sequence (O43570 25-354): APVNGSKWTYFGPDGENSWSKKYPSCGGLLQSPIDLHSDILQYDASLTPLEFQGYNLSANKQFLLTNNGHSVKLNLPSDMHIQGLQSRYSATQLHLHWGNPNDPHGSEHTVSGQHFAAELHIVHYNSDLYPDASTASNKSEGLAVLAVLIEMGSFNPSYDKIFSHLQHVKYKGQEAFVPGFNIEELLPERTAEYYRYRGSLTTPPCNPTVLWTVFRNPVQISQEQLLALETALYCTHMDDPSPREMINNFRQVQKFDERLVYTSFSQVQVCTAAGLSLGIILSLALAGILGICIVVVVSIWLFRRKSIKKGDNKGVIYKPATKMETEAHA
Method for hCA II: (§1) An Applied Photophysics stopped-flow instrument (Applied Photophysics, Leatherhead, UK) was used for assaying the CA-catalyzed CO2 hydration activity [31]. […] The uncatalyzed rates were determined in the same manner and subtracted from the total observed rates. Stock solutions of inhibitor (0.1 mM) were prepared in distilled-deionized water and dilutions up to 0.005 nM were done thereafter with the assay buffer. Inhibitor and enzyme solutions were preincubated together for 15 min at room temperature prior to assay, in order to allow formation of the E–I complex. The inhibition constants were obtained by non-linear least-squares methods using PRISM 3 and the ChengPrusoff equation, as reported earlier, and represent the mean from at least three different determinations. All CA isozymes were recombinant ones obtained in-house.
Method for hCA IV: as §1
Method for hCA IX: as §1
Method for hCA XII: as §1

With `NC(=O)CC(Nc1nc(Nc2ccc(S(N)(=O)=O)cc2)nc(NC(CC(N)=O)C(=O)O)n1)C(=O)O` (centres unmarked) [compound 9], the “Selectivity II/IX” value on hCA IX is given as 0.73. In addition, the inhibition constant Ki (usually the dissociation constant of the complex between target and ligand, obtained from inhibition or displacement) was 895 nM at hCA IX; greater than 10000 nM on hCA I; 5330 nM on hCA IV; 656 nM at hCA II; 38.4 nM at hCA XII. Moreover, the “Selectivity II/XII” value on hCA XII is on record as 17.10.

Consider `NC(=O)CC(Nc1nc(NCc2ccc(S(N)(=O)=O)cc2)nc(NC(CC(N)=O)C(=O)O)n1)C(=O)O` (centres unmarked) [compound 16, 2,2′-[(6-({4-sulfamoylbenzyl}amino)-1,3,5-triazine-2,4-diyl)diimino]bis(3-carbamoylpropanoic acid)], for which the “Selectivity II/IX” value at hCA IX is 2.63. Further, the inhibition constant (Ki) is 95.3 nM at hCA IX; 834 nM on hCA I; greater than 10000 nM on hCA IV; 251 nM at hCA II; 44 nM on hCA XII. Further, the “Selectivity II/XII” value on hCA XII is 5.70.

In the case of `CC(Nc1nc(Nc2ccc(S(N)(=O)=O)cc2)nc(NC(C)C(=O)O)n1)C(=O)O` (centres unmarked) [compound 4], at hCA IX, the “Selectivity II/IX” value is listed as 1.52. Further, the Ki is 515 nM on hCA IX; 5540 nM on hCA I; 88.1 nM at hCA IV; 782 nM on hCA II; 8.88 nM at hCA XII. For the same molecule, the “Selectivity II/XII” value at hCA XII is given as 88.10.

Consider `CC(Nc1nc(NCc2ccc(S(N)(=O)=O)cc2)nc(NC(C)C(=O)O)n1)C(=O)O` (centres unmarked) [compound 11, 2,2′-[(6-({4-sulfamoylbenzyl}amino)-1,3,5-triazine-2,4-diyl)diimino]dipropanoic acid], for which the “Selectivity II/IX” value on hCA IX amounted to 2.87. The Ki worked out at 63.5 nM at hCA IX; 636 nM on hCA I; 470 nM at hCA IV; 182 nM on hCA II; 9.3 nM on hCA XII. Further, on hCA XII, the “Selectivity II/XII” value was 19.60.

On to `NS(=O)(=O)c1ccc(CCNc2nc(NC(Cc3ccc(O)cc3)C(=O)O)nc(NC(Cc3ccc(O)cc3)C(=O)O)n2)cc1` (centres unmarked) [compound 19, 2,2′-[(6-({2-(4-sulfamoylphenyl)ethyl}amino)-1,3,5-triazine-2,4-diyl)diimino]bis(3-(4-hydroxyphenyl)propanoic acid)], for which the “Selectivity II/IX” value on hCA IX is on record as 0.21. The Ki was 61.1 nM at hCA IX; 60.8 nM at hCA I; 879 nM at hCA IV; 12.8 nM at hCA II; 7.5 nM at hCA XII. Besides, the “Selectivity II/XII” value on hCA XII is on record as 1.70.

`NS(=O)(=O)c1ccc(CCNc2nc(NC(CO)C(=O)O)nc(NC(CO)C(=O)O)n2)cc1` (centres unmarked) [compound 21, 2,2′-[(6-({2-(4-sulfamoylphenyl)ethyl}amino)-1,3,5-triazine-2,4-diyl)diimino]bis(3-hydroxypropanoic acid)]: the “Selectivity II/IX” value at hCA IX is on record as 3.19. In addition, the inhibition constant Ki on hCA IX is 85.5 nM; at hCA I, 819 nM; at hCA IV it was greater than 10000 nM; at hCA II it was 273 nM; at hCA XII it was 27.1 nM. The “Selectivity II/XII” value on hCA XII was determined as 10.10.

`NS(=O)(=O)c1ccc(Nc2nc(NC(Cc3ccc(O)cc3)C(=O)O)nc(NC(Cc3ccc(O)cc3)C(=O)O)n2)cc1` (centres unmarked) [compound 5]: the “Selectivity II/IX” value on hCA IX was 0.06. The Ki on hCA IX turned out to be 57.8 nM; on hCA I, 98.3 nM; at hCA IV it was 74.6 nM; on hCA II it was 3.61 nM; on hCA XII, 9.41 nM. The “Selectivity II/XII” value at hCA XII turned out to be 0.40.

As for `CC(Nc1nc(NCCc2ccc(S(N)(=O)=O)cc2)nc(NC(C)C(=O)O)n1)C(=O)O` (centres unmarked) [compound 18, 2,2′-[(6-({2-(4-sulfamoylphenyl)ethyl}amino)-1,3,5-triazine-2,4-diyl)diimino]dipropanoic acid], the inhibitory constant (Ki) was found to be 78.8 nM at hCA IX, 787 nM on hCA I, 3860 nM on hCA IV and 169 nM at hCA II.
